Results taken from the supplement of paper PMC10307832.

Key:
Test in all cases: relative viability (nuclei count vs DMSO), 5 days (fraction); higher = more cells survive
Neratinib + Vorinostat = compound: CCOc1cc2ncc(C#N)c(Nc3ccc(OCc4ccccn4)c(Cl)c3)c2cc1NC(=O)/C=C/CN(C)C [Neratinib] + O=C(CCCCCCC(=O)Nc1ccccc1)NO [Vorinostat] (partner 1 µM)
In short: (§1)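 Lung cancer cell lines were seeded in 1536-well plates and dosed by pin tool the next day, with either a single drug or a fixed anchor-drug dose combined with five library-drug doses (not always all listed) spaced in √10 steps. Five days later, one step fixed the cells and stained their nuclei (final 0.05% Triton X-100, 1% formaldehyde, 1 ug/ml Hoechst), and nuclei were counted on 4× images. Relative viability is the nuclei count in treated wells divided by the count in vehicle wells, and each value is the median of duplicate plates.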

Neratinib + Linsitinib = compound: CCOc1cc2ncc(C#N)c(Nc3ccc(OCc4ccccn4)c(Cl)c3)c2cc1NC(=O)/C=C/CN(C)C [Neratinib] + C[C@]1(O)C[C@@H](c2nc(-c3ccc4ccc(-c5ccccc5)nc4c3)c3c(N)nccn32)C1 [Linsitinib] (partner 1 µM)
In short: as §1

Neratinib + Olaparib = compound: CCOc1cc2ncc(C#N)c(Nc3ccc(OCc4ccccn4)c(Cl)c3)c2cc1NC(=O)/C=C/CN(C)C [Neratinib] + O=C(c1cc(Cc2n[nH]c(=O)c3ccccc23)ccc1F)N1CCN(C(=O)C2CC2)CC1 [Olaparib] (partner 8 µM)
In short: as §1

Neratinib + Pemetrexed = compound: CCOc1cc2ncc(C#N)c(Nc3ccc(OCc4ccccn4)c(Cl)c3)c2cc1NC(=O)/C=C/CN(C)C [Neratinib] + Nc1nc2[nH]cc(CCc3ccc(C(=O)N[C@@H](CCC(=O)O)C(=O)O)cc3)c2c(=O)[nH]1 [Pemetrexed] (partner 0.2 µM)
In short: as §1

Row | Cell Line | relative viability (Neratinib + Vorinostat; first compound 0.01 µM) | relative viability (Neratinib + Vorinostat; first compound 0.03162 µM) | relative viability (Neratinib + Vorinostat; first compound 0.1 µM) | relative viability (Neratinib + Vorinostat; first compound 0.3162 µM) | relative viability (Neratinib + Vorinostat; first compound 1 µM) | relative viability (Neratinib + Linsitinib; first compound 0.01 µM) | relative viability (Neratinib + Linsitinib; first compound 0.03162 µM) | relative viability (Neratinib + Linsitinib; first compound 0.1 µM) | relative viability (Neratinib + Linsitinib; first compound 0.3162 µM) | relative viability (Neratinib + Linsitinib; first compound 1 µM) | relative viability (Neratinib + Olaparib; first compound 0.01 µM) | relative viability (Neratinib + Olaparib; first compound 0.03162 µM) | relative viability (Neratinib + Olaparib; first compound 0.1 µM) | relative viability (Neratinib + Olaparib; first compound 0.3162 µM) | relative viability (Neratinib + Olaparib; first compound 1 µM) | relative viability (Neratinib + Pemetrexed; first compound 0.01 µM) | relative viability (Neratinib + Pemetrexed; first compound 0.03162 µM) | relative viability (Neratinib + Pemetrexed; first compound 0.1 µM) | relative viability (Neratinib + Pemetrexed; first compound 0.3162 µM) | relative viability (Neratinib + Pemetrexed; first compound 1 µM)
1 | PC-14 | 0.773 | 0.754 | 0.557 | 0.359 | 0.0625 | 0.979 | 1.1 | 0.872 | 0.639 | 0.216 | 0.188 | 0.344 | 0.37 | 0.233 | 0.102 | 0.128 | 0.118 | 0.14 | 0.141 | 0.0777
2 | RERF-LC-KJ | 0.705 | 0.742 | 0.55 | 0.66 | 0.382 | 0.943 | – | 0.865 | 0.714 | 0.712 | 0.925 | 0.911 | 0.828 | 0.848 | 0.468 | 0.484 | 0.483 | 0.505 | 0.477 | 0.405
3 | SK-LU-1 | 0.805 | 0.878 | 0.728 | 0.651 | 0.421 | 1.15 | 1.31 | 0.876 | 0.629 | 0.401 | 0.486 | 0.549 | 0.413 | 0.432 | 0.314 | 1.01 | 0.999 | 0.932 | 0.917 | 0.49
4 | SK-MES-1 | 1.12 | 1.08 | 1.05 | 0.925 | 0.29 | – | 1.09 | 0.888 | 0.507 | 0.395 | 0.807 | 0.778 | 0.631 | 0.264 | 0.233 | 1.01 | 0.925 | 0.89 | 0.529 | 0.308
5 | SW 1573 | 0.797 | 0.831 | 0.612 | 0.623 | 0.38 | 0.742 | 0.89 | 0.778 | 0.782 | 0.642 | 0.634 | 0.444 | 0.374 | 0.391 | 0.287 | – | 0.878 | 0.651 | 0.799 | 0.475
6 | UMC-11 | 0.434 | 0.417 | 0.296 | 0.332 | 0.283 | 0.925 | 1.07 | 0.655 | 0.921 | 0.684 | 0.362 | 0.388 | 0.33 | 0.361 | 0.299 | 0.786 | 0.785 | 0.525 | 0.683 | 0.51
